Source: ChEMBL document CHEMBL1201862, “PubChem BioAssay data set” (2004)
The source made the active and inactive calls.

Experiments:
[1] = target: Voltage-gated inwardly rectifying potassium channel KCNH2 (Homo sapiens, UniProt Q12809); settings: Potency;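 further: confirmatory quantitative high-throughput screen measuring inhibition of hERG channel activity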
[2] = NIH-3T3 fibroblast cytotoxicity, dose response, cytotoxicity control, cell-based, fluorescence, Alamar Blue, secondary assay (AID 2327); type: functional;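 further: NIH-3T3 mouse fibroblasts cultured with fluconazole at 8 µg/mL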
[3] = target: G-protein coupled receptor 35 (Homo sapiens, UniProt Q9HC97); experiment: inhibition of zaprinast-stimulated GPR35 beta-arrestin translocation – imaging, U2OS, beta-arrestin-GFP, zaprinast agonist, primary screen (AID 2058); type: functional;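 further: antagonist potency meaning inhibition of agonist-induced arrestin redistribution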
G-protein coupled receptor 35, sequence (Q9HC97 whole entry): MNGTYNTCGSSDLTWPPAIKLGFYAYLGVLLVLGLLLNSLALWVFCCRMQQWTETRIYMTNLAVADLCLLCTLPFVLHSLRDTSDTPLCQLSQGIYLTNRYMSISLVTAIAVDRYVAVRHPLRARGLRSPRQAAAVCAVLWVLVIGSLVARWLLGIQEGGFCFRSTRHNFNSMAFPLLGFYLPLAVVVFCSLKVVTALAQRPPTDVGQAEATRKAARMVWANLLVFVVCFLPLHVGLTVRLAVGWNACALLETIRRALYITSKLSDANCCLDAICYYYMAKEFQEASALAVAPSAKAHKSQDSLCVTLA

[4] = luciferase reporter signal suppression in cells – H4 neuroglioma cells, luminescence, dose response (AID 1990); type: functional, cell-based
[5] = test system: Streptococcus sp. 'group A'; experiment: Streptococcus pyogenes SK(-)GAS viability under kanamycin – luminescence, BacTiterGlo, confirmation, counter-screen for streptokinase expression inhibitor project, dose response (AID 1900); type: functional, organism-based
[6] = test system: BJ; experiment: BJ-TERT fibroblast viability loss – cell-based, RAS-independent, luminescence, dose response (AID 1933); type: functional; settings: Homo sapiens
[7] = Luminescence Cell-Based Dose Response HTS to Identify Inhibitors of 5'UTR Stem-Loop Driven Prion Protein mRNA Translation in H4 Neuroglioblastoma Cells. [Related pubchem assays: 1827 (Project Summary), 1813 (Primary HTS)]; type: functional
[8] = test system: BJ; experiment: cells; type: functional, cell-based; settings: Homo sapiens
[9] = fluconazole-exposed Candida albicans growth modulators – fluorescence, retest, confirmation (AID 2467); type: functional, cell-based
[10] = target: T1, Serine/threonine-protein phosphatase (Candida dubliniensis (strain CD36 / CBS 7987 / NCPF 3949 / NRRLY-17841) (Yeast), UniProt B9W6M3); experiment: blockers of CaCl2-induced CDRE-lacZ signaling – S. cerevisiae, luminescence, secondary, dose response (AID 2388); type: functional, cell-based;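 further: yeast reporter cells carrying a calcineurin-responsive lacZ construct stimulated with calcium chloride; luminescent beta-galactosidase reporter signal in whole cells rather than isolated phosphatase activity; potency for inhibition where a drop in reporter signal means calcineurin blockade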
T1 sequence (B9W6M3 whole entry): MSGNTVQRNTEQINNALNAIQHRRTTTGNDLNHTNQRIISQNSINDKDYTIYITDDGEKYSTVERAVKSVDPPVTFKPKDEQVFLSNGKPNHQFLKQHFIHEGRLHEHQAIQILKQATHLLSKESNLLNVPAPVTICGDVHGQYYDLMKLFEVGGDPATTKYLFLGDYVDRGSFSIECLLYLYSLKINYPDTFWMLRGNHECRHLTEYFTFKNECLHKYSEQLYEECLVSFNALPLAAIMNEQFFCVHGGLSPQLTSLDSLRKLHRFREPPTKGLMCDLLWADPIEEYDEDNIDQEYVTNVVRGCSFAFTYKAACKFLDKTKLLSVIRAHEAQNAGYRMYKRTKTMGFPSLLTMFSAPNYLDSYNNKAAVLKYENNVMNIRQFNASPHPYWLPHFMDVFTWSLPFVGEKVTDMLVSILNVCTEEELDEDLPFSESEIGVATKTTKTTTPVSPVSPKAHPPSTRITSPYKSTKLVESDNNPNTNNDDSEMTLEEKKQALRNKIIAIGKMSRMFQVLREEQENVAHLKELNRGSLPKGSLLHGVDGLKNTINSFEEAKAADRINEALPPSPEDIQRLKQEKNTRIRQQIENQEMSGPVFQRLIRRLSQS

[11] = test system: BJ; experiment: BJ-TERT-LT-ST fibroblast viability loss – cell-based, RAS-independent, luminescence, dose response (AID 1935); type: functional; settings: Homo sapiens;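 further: BJ fibroblasts immortalized with TERT plus LT and ST oncogenes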
[12] = DRD fibroblast viability loss – cell-based, non-viral oncogenic, luminescence, dose response (AID 1934); type: functional; settings: Homo sapiens
[13] = test system: Streptococcus; experiment: GAS UMAA2166 growth inhibition – luminescence, BacTiterGlo, counter-screen for streptokinase expression inhibitor project, dose response (AID 1915); type: functional, organism-based;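 further: potency for reduction of bacterial viability or growth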
[14] = target: Cyclin-dependent kinase 5/CDK5 activator 1 (Homo sapiens, UniProt Q00535); experiment: blockade of human CDK5 activity – biochemical, cherry-picked samples, set 2, dose response (AID 504545)
Cyclin-dependent kinase 5/CDK5 activator 1, sequence (Q00535 whole entry): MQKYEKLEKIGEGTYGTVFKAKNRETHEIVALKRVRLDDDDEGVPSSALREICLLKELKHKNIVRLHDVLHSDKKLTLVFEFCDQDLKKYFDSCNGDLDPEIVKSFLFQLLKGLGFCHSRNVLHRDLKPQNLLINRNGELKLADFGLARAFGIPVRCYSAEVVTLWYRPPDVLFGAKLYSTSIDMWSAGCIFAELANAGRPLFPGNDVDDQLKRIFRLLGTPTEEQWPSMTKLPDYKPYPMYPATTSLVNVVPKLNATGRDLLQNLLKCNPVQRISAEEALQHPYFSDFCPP
Cyclin-dependent kinase 5/CDK5 activator 1, sequence (Q15078 whole entry, further chain): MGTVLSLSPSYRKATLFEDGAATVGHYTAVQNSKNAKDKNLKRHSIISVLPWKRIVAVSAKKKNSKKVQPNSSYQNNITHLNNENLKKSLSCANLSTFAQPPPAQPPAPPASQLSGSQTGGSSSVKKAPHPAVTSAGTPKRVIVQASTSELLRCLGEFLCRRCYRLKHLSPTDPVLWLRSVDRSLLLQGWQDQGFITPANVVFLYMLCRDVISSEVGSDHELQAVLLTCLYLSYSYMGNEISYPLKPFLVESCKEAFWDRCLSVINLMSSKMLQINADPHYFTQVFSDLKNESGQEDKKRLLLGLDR

[15] = HEK-293T viability loss after treatment – luminescence, T-cell screen hits, cytotoxicity control for TCR NF-kB inhibitor project, dose response (AID 489026); type: functional, cell-based;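 further: cells exposed to compound about 14 hours before the viability readout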
[16] = target: Nonstructural protein 1 (Influenza A virus, UniProt Q194T2); type: functional, Influenza A virus (A/California/07/2009(H1N1))
Nonstructural protein 1, sequence (Q194T2 whole entry): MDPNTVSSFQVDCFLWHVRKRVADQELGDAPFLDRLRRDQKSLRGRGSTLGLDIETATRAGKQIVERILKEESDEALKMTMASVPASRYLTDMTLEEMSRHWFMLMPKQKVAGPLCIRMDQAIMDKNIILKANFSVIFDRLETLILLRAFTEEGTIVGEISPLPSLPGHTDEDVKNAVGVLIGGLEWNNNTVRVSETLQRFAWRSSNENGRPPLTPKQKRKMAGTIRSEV

[17] = target: T2, Cysteine protease ATG4B (Homo sapiens, UniProt Q9Y4P1); type: functional;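 further: Fluorescence-based dose-response confirmation assay measuring inhibition of ATG4B activity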
T2 sequence (Q9Y4P1 whole entry): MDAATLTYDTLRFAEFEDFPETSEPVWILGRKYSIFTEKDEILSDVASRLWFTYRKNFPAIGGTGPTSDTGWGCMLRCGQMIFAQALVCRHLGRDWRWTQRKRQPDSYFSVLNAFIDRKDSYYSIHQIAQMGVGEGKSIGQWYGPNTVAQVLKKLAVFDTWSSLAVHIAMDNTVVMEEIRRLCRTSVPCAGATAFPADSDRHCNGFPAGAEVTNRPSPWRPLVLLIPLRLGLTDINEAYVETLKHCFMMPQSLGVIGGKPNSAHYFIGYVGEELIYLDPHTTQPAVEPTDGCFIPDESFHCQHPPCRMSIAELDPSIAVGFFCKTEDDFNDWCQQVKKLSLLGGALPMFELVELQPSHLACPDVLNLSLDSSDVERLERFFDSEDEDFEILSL

[18] = target: Phospholipase A2 (Homo sapiens, UniProt P04054); type: functional;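 further: confirmatory dose-response counterscreen on phospholipase A2, testing hits that came from an ultra-high-throughput screen for ATG4B inhibitors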
Phospholipase A2, sequence (P04054 whole entry): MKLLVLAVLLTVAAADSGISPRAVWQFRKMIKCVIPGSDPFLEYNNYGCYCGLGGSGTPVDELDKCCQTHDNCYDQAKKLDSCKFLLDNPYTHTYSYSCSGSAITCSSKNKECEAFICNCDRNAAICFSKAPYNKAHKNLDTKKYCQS

[19] = target: T3, Apoptotic protease-activating factor 1 (Homo sapiens, UniProt O14727); type: functional
T3 sequence (O14727 whole entry): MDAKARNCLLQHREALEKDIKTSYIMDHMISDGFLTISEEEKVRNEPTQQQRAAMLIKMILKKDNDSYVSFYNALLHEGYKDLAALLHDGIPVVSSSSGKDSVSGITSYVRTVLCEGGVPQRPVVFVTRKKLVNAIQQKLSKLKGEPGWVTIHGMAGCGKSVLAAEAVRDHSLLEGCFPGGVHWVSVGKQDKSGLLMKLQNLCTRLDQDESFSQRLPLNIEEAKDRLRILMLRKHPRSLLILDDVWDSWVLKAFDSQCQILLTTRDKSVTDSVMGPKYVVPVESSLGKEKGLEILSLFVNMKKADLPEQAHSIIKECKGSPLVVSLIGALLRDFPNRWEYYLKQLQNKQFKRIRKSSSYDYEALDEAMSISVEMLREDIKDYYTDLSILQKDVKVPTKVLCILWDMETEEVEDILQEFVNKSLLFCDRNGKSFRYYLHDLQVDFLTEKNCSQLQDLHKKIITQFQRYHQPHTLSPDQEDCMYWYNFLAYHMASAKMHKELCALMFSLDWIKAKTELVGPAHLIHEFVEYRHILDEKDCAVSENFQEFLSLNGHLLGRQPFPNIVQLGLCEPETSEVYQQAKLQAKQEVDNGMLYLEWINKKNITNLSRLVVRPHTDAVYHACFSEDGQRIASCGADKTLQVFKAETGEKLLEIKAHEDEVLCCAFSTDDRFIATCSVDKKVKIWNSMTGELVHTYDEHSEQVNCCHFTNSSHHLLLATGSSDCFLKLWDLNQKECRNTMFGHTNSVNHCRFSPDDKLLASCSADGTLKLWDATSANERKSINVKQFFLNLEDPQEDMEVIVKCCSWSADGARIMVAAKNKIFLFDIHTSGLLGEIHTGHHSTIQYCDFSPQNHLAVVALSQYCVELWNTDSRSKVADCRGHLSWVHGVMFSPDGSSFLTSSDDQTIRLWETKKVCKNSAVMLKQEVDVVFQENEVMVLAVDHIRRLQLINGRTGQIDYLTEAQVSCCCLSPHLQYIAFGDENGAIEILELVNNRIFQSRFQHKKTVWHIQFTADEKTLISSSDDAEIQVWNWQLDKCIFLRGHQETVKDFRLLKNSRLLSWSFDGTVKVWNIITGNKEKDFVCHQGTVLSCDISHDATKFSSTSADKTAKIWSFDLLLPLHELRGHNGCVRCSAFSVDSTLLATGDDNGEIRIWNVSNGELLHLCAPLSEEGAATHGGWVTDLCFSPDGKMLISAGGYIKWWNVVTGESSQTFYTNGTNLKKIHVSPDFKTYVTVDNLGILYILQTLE

[20] = test system: BJ; experiment: growth inhibition of engineered Ras-driven BJ cells – cell-based, alamar blue fluorescence, cherrypicked samples, dose response (AID 2631); type: functional; settings: Homo sapiens;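 further: confirmatory dose-response assay in RAS-dependent BJ fibroblasts engineered with TERT, LT and ST, with cytotoxicity read by fluorescence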
[21] = target: Beta-arrestin-1 (Homo sapiens, UniProt P49407); experiment: beta-arrestin/AP2 interaction blockers, potency – biochemical, cherry pick 1, beta2-adaptin appendage, flow cytometry, dose response (AID 588783); type: functional
Beta-arrestin-1, sequence (P49407 whole entry): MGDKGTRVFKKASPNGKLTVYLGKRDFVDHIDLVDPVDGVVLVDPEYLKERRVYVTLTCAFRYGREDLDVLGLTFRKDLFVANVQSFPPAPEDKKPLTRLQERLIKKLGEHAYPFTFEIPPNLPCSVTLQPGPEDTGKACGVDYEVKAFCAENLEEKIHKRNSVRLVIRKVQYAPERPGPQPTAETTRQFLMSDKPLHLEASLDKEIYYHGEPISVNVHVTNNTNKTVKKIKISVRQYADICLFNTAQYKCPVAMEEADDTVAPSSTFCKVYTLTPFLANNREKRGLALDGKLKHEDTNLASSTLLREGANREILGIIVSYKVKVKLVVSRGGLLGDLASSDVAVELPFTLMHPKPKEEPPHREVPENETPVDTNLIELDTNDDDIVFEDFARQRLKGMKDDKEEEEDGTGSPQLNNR

[22] = target: ATP-dependent molecular chaperone HSP82 (Candida albicans (strain WO-1) (Yeast), UniProt C4YTQ8); experiment: steroid-induced GRE reporter decrease in yeast – S. cerevisiae, luminescence, Hsp90 inhibitor project, dose response (AID 2400); type: functional, cell-based;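 further: beta-galactosidase luminescence from glucocorticoid response element reporter as proxy for Hsp90 function; inhibitor potency where signal loss means Hsp90 inhibition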
ATP-dependent molecular chaperone HSP82, sequence (C4YTQ8 whole entry): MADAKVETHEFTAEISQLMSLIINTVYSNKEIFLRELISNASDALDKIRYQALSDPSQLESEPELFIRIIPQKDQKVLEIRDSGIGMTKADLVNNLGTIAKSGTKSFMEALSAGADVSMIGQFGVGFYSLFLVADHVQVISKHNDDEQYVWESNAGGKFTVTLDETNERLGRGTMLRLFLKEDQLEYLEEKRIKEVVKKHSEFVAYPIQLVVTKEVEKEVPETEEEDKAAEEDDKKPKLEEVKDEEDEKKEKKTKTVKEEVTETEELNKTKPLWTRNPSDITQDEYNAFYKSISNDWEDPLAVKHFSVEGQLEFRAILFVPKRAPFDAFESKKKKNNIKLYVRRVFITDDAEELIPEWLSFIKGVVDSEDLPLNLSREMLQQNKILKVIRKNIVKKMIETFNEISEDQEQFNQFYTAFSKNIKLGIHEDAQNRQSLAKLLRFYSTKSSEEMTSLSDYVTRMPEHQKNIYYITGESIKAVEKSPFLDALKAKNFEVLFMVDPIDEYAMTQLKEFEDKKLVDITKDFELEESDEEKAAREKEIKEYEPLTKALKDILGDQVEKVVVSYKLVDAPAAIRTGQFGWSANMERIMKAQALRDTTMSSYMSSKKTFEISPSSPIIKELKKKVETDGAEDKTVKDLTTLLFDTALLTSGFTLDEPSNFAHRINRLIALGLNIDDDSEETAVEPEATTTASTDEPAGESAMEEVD

[23] = microbe, parasite or virus in culture; type: functional; settings: Mycobacterium tuberculosis
[24] = viability of PTEN-deleted HCT116 cells – cell-based, HCT116 PTEN knockout, dose response (AID 1047); type: functional;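 further: HCT116 colon tumor cells with PTEN knocked out; cells exposed to compound for 60 hours before readout; potency for loss of cell viability measured by luminescence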
[25] = viability of HCT116 lacking mutant beta-catenin – cell-based, human colon tumor, dose response (AID 1045); type: functional;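 further: HCT116 colon tumor cells with beta catenin knocked out; cells exposed to compound for 60 hours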
[26] = THP-1 cell cytotoxicity, dose response, cytotoxicity control for non-replicating M. tuberculosis project (AID 489025); type: functional
[27] = Luminescence Cell-Based Dose Retest to Confirm Inhibitors of Cancer Stem Cells. [Related pubchem assays (depositor defined):AID2717, AID2721]; type: functional, Homo sapiens; settings: Homo sapiens
[28] = HepG2 cell cytotoxicity, dose response, cytotoxicity control for non-replicating M. tuberculosis project (AID 489018); type: functional; settings: Mycobacterium tuberculosis
[29] = Vero E6 cell cytotoxicity, dose response, cytotoxicity control for non-replicating M. tuberculosis project, secondary assay (AID 492998); type: functional, VeroE6; settings: Vero C1008
[30] = target: T4, Microphthalmia-associated transcription factor (Homo sapiens, UniProt O75030); experiment: reducers of TRPM1 reporter luminescence, concentration series – cell-based, SK-MEL-5, cherry-picked, set 3, MITF inhibitor project, dose response (AID 493073); type: functional;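 further: SK-MEL-5 melanoma cells with luciferase driven by the MITF target TRPM1 promoter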
T4 sequence (O75030 whole entry): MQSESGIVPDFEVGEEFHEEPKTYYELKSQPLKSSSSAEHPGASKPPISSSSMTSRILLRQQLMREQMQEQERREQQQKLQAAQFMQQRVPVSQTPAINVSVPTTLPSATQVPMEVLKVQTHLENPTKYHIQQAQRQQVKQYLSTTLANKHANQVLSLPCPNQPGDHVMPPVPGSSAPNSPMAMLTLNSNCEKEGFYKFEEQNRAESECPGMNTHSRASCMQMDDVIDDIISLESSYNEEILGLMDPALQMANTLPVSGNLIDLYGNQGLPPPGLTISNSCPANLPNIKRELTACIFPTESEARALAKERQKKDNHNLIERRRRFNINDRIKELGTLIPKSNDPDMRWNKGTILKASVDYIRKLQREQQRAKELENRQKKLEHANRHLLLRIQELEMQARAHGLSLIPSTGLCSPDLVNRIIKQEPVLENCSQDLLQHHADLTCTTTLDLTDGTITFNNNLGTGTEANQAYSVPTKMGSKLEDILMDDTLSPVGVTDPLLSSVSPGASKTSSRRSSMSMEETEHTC

[31] = cells; type: functional
[32] = test system: A-375; experiment: proliferation inhibition in MITF-low A375 cells – cell-based, cherry-pick samples, set 2, counter-screen for MITF modulator project, dose response (AID 540335); type: functional; settings: Homo sapiens
[33] = target: T5, DNA repair protein RAD52 homolog (Homo sapiens, UniProt P43351); type: functional, biochemical
T5 sequence (P43351 whole entry): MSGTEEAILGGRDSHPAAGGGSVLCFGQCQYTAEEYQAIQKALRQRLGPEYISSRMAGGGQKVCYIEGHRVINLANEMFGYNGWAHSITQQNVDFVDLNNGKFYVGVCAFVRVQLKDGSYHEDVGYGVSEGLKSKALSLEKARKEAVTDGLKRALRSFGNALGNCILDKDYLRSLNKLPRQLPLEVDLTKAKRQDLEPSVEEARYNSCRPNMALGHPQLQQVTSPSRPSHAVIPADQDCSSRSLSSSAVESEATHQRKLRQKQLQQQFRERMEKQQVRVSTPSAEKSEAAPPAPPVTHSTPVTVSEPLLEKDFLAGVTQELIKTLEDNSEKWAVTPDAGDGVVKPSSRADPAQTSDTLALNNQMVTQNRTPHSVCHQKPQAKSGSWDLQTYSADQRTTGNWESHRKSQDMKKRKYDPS

[34] = test system: HeLa; experiment: ATP-based viability loss in HeLa cells – cell-based, CellTiter-Glo luminescence, cherry-pick samples, cytotoxicity control for MITF activator project, dose response (AID 540259); type: functional; settings: Homo sapiens
[35] = target: CAAX prenyl protease 1 (Saccharomyces cerevisiae S288c, UniProt P47154); experiment: yeast CAAX protease Ste24 inhibition – biochemical, S. cerevisiae, plate reader, cherry-pick, dose response (AID 488815)
CAAX prenyl protease 1, sequence (P47154 whole entry): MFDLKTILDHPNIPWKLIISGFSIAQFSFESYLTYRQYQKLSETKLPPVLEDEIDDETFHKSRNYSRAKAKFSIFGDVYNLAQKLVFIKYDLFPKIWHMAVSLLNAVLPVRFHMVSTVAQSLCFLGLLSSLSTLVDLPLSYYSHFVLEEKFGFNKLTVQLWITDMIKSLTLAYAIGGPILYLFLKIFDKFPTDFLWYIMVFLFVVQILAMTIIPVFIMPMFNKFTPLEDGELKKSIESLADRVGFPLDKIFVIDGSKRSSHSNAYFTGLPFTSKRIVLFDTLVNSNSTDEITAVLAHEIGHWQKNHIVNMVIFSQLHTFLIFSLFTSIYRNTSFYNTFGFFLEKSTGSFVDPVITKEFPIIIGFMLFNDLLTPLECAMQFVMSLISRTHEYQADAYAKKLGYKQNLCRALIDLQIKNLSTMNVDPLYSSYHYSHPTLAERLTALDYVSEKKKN

[36] = target: CAAX prenyl protease 2 (Homo sapiens, UniProt Q9Y256); experiment: inhibition of Ras-converting CAAX protease Rce1 – biochemical, yeast membranes, quenched-peptide fluorescence, cherry-pick, dose response (AID 588849)
CAAX prenyl protease 2, sequence (Q9Y256 whole entry): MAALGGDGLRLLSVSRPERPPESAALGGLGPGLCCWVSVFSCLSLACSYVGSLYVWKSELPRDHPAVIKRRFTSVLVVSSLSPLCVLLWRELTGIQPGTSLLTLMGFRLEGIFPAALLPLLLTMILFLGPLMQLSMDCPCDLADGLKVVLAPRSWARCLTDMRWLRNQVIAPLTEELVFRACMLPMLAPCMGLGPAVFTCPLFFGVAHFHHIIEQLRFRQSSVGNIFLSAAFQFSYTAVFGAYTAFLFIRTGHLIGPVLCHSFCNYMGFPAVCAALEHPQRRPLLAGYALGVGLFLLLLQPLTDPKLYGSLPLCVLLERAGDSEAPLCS

Voltage-gated inwardly rectifying potassium channel KCNH2, sequence (Q12809 whole entry): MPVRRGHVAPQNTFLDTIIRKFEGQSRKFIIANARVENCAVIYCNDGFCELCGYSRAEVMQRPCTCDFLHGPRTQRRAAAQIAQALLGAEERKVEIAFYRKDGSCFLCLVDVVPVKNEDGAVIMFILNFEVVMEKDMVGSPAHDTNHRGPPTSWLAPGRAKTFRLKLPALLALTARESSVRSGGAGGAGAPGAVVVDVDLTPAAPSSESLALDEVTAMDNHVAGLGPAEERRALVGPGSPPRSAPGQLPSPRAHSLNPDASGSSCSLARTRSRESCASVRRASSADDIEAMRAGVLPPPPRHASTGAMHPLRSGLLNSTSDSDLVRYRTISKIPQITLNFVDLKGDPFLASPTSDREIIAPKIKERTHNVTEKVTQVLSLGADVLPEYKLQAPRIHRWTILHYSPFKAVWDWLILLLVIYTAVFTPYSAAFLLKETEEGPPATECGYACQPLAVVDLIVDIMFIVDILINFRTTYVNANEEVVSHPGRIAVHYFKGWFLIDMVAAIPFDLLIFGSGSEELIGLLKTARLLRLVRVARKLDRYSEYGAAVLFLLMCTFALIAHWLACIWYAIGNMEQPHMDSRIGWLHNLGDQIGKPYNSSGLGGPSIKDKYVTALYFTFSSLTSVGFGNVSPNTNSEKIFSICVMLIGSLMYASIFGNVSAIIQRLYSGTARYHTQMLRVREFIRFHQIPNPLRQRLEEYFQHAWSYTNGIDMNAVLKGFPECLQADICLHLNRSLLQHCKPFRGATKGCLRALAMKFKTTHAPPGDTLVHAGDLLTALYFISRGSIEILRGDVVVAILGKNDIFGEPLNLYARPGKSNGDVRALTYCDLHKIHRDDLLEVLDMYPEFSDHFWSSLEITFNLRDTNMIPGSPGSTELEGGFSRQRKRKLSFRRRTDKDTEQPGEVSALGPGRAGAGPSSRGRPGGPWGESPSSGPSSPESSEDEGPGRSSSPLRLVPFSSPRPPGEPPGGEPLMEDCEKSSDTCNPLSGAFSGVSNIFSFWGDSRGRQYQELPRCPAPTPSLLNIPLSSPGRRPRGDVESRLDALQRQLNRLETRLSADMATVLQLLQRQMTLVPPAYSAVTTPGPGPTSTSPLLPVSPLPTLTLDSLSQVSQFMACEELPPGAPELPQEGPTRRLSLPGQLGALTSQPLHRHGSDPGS

Brc1cc(Br)c(Oc2cc(Br)c(Br)cc2Br)cc1Br
AC50 [1]: 17.8 µM (inconclusive)

CCN1/C(=C/C(C)=C/c2sc3ccccc3[n+]2CC)Sc2ccccc21
EC50 [2]: 77.7 µM (active)
IC50 [3]: 1.01 µM (active)
EC50 [4]: < 0.1 µM (active)
EC50 [5]: 2.15 µM (active)
EC50 [6]: 4.56 µM (active)
EC50 [7]: 1.68 µM (active)
EC50 [8]: 6.01 µM (active)
EC50 [9]: 0.051 µM (active)
EC50 [10]: > 180 µM (inactive)
EC50 [11]: 5.48 µM (inconclusive)
EC50 [12]: 6.17 µM (active)
EC50 [13]: 2.74 µM (active)
AC50 [14]: 41.1 µM (active)
IC50 [15]: 64.4 µM (inactive)
IC50 [16]: 5.7 µM (active)
IC50 [17]: 8.62 µM (active)
IC50 [18]: 7.86 µM (active)
IC50 [19]: 19.4 µM (active)
EC50 [20]: 1.74 µM (active)
IC50 [21]: 2.2 µM (active)
EC50 [22]: 18.3 µM (active)

CCN(Cc1ccccc1)c1ccc(/C=N/N=C(N)N)cc1
CC50 [23]: 9.2 µM (active)
EC50 [24]: 3.27 µM (active)
EC50 [25]: 3.35 µM (active)
CC50 [26]: 7.49 µM (active)
AC50 [27]: 2.61 µM (active)
CC50 [28]: 7.93 µM (active)
CC50 [29]: 8.36 µM (active)
IC50 [16]: 39.3 µM (active)
AC50 [30]: 6.37 µM (active)
IC50 [31]: 10.9 µM (active)
AC50 [32]: 18.4 µM (active)
AC50 [33]: 6.26 µM (active)

COC(=O)c1ccc(/C=N/Nc2nc(C)c(C)s2)cc1
AC50 [34]: 69.8 µM (active)

CC1CCCC(/C=N/c2ccccc2C(=O)O)=C1O (configuration not stated)
AC50 [35]: 4.3 µM (active)
AC50 [36]: 11.6 µM (active)
